Experimental data reported in patent US6602708B1, “Neural cultures” (CellFactors plc, priority 1994, dated 2003).

Tests used:
raphe clone 1 cells = raphe clone 1 cells at non-permissive temperature (39° C.), survival and differentiation; assay type: cell-based, rat; settings: plus fibroblast growth factor, up to 72 h
Protocol: The above referred to homogeneous population of raphe clone 1 cells can be caused to enter apoptosis using any of the following four methods.
1. Temperature was raised to non-permissive value (39° C.) for up to 72 h, in the presence or absence of fibroblast growth factor or epidermal growth factor. Neural cells developed the ability to take up 5-hydroxytryptophan (5HTP, the precursor of 5HT), 5HT itself, and to decarboxylate 5-hydroxytryptophan to 5HT. […] The 5HT derived from 5HTP was released, although the mechanism of such release is not known.
2. Temperature was raised to non-permissive value (39° C.) for up to 72 h, in the presence of cyclic AMP plus fibroblast growth factor.
3. Temperature was raised to non-permissive value (39° C.) for up to 96 h, in the presence of retinoic acid (10 μM) plus fibroblast growth factor.

low-affinity carrier = experiment: serotonin uptake by clone 921203-6 cells after shift to 39° C.; assay type: cell-based, rat; settings: clone 921203-6, 39° C.
Protocol: Mesencephalic and medullary raphe neural cells from the E12-E13 rat embryo (E1=day of conception) were immortalised using a temperature-sensitive oncogene as described earlier (Stringer et al., 1994). Under permissive conditions, ie in the presence of 5 ng/ml of fibroblast growth factor (FGF)(Sigma, product no. F3391) and at 33° C., the immortalised raphe precursor cells replicate. […] No calcium channels were demonstrable using patch clamp analysis.

Structure (SMILES)	extent of fibre development (raphe clone 1 cells)	Km (low-affinity carrier)
Nc1ncnc2c1ncn2[C@@H]1O[C@@H]2COP(=O)(O)O[C@H]2[C@H]1O [cyclic AMP]	increase	
NCCc1c[nH]c2ccc(O)cc12 [serotonin, 5-hydroxytryptamine]		56 µM
